Assay results published in ChEMBL document CHEMBL1201862, “PubChem BioAssay data set” (2004).
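Tested at 5 concentrations; 48 h exposure; 96-well plates; endpoints linearly interpolated, else capped at highest concentration. GI50: concentration for 50% inhibition of growth.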 Calls of active or inactive are those of the source. Rule as the data show it: active = GI50 up to about 1.1 µM and inactive = higher.

How the values were obtained:
Assay in all cases: NCI-60 cell line screen, 48 h
DU-145 = tested on: DU-145
A498 = tested on: A498
HOP-62 = tested on: HOP-62
NCI-H522 = tested on: NCI-H522
NCI-H23 = tested on: NCI-H23
TK-10 = tested on: TK-10
RPMI-8226 = tested on: RPMI-8226
CAKI-1 = tested on: CAKI-1
SK-MEL-28 = tested on: SK-MEL-28
A549 = tested on: A549
K562 = tested on: K562
KM12 = tested on: KM12
MDA-MB-231 = tested on: MDA-MB-231
SNB-19 = tested on: SNB-19
CCRF-CEM = tested on: CCRF-CEM
U-251 = tested on: U-251
Hs-578T = tested on: Hs-578T
NCI-H460 = tested on: NCI-H460
OVCAR-4 = tested on: OVCAR-4
NCI/ADR-RES = tested on: NCI/ADR-RES

Measured: GI50

COc1cccc(C2c3cc4c(cc3OC(NNc3ccccc3)C2C)OCO4)c1O (stereo not given)
inactive: DU-145 5.13 µM | A498 14 µM | HOP-62 2.51 µM | NCI-H522 2.36 µM | NCI-H23 10.1 µM | TK-10 3.62 µM | RPMI-8226 4.18 µM | CAKI-1 3.1 µM | SK-MEL-28 8.77 µM | A549 3.65 µM | K562 2.24 µM | KM12 2.38 µM | MDA-MB-231 12.6 µM | SNB-19 12.8 µM | CCRF-CEM 4.68 µM | U-251 5.61 µM | Hs-578T 11.9 µM | NCI-H460 2.81 µM

N#CC(c1ccccc1)N(CCCCCCN(C(=O)c1ccccc1)C(C#N)c1ccccc1)C(=O)c1ccccc1 (stereo not given)
inactive: DU-145 41.3 µM | A498 15 µM | NCI-H23 26.2 µM | TK-10 18.7 µM | OVCAR-4 35 µM | CAKI-1 32.1 µM | SK-MEL-28 44.4 µM | A549 40.7 µM | K562 35.2 µM | KM12 38.5 µM | MDA-MB-231 47.6 µM | SNB-19 44.2 µM | CCRF-CEM 49.8 µM | NCI/ADR-RES 16 µM | U-251 52.6 µM | Hs-578T 26.1 µM | NCI-H460 27.6 µM

CC1CCCc2c(-c3ccc(Cl)cc3)nc(N)c(C#N)c21 (stereo not given)
inactive: DU-145 39 µM | A498 28.4 µM | HOP-62 19.2 µM | NCI-H23 30.4 µM | TK-10 43.7 µM | RPMI-8226 13.5 µM | CAKI-1 58.2 µM | SK-MEL-28 34.2 µM | K562 24 µM | KM12 20.2 µM | MDA-MB-231 > 100 µM | SNB-19 64.7 µM | CCRF-CEM 21.1 µM | NCI/ADR-RES 23.2 µM | U-251 39.9 µM | Hs-578T 28.3 µM | NCI-H460 33.1 µM

CN(C)CCCNC1=C(Cl)C(=O)c2c(O)ccc(O)c2C1=O
inactive: DU-145 1.82 µM | A498 > 10 µM | HOP-62 2.61 µM | NCI-H23 1.65 µM | TK-10 3.84 µM | OVCAR-4 1.49 µM | CAKI-1 > 10 µM | SK-MEL-28 1.52 µM | A549 1.66 µM | K562 3.61 µM | KM12 2.99 µM | MDA-MB-231 2.9 µM | SNB-19 1.94 µM | CCRF-CEM 2.47 µM | NCI/ADR-RES 2.44 µM | U-251 1.74 µM | Hs-578T 1.28 µM | NCI-H460 2.13 µM
